Data: US20260116921A1, “PEPTIDE INHIBITORS OF INTERLEUKIN-23 RECEPTOR AND THEIR USE TO TREAT INFLAMMATORY DISEASES” (priority 2018, published 2026)
Read-outs that look alike come from different tables or passages of the source. Values belong to the molecule of their own block, whether it stands above or below them. Bridge positions count the residues as written; N and C are the ends. Square brackets hold non-standard residues; d marks the D form. Trp(4-OMe) = COc1cccc2[nH]cc(C[C@H](N)C(=O)O)c12; Trp(5-Cl) = N[C@@H](Cc1c[nH]c2ccc(Cl)cc12)C(=O)O; Trp(5-OH) = N[C@@H](Cc1c[nH]c2ccc(O)cc12)C(=O)O; AEF = NCCOc1ccc(C[C@H](N)C(=O)O)cc1; αMeL = CC(C)C[C@](C)(N)C(=O)O; Pen = CC(C)(S)[C@H](N)C(=O)O

Columns and labels:
[1] = 20% cynomolgus monkey fecal homogenate, 37° C., 20 μM
[2] = target: T1, IL-23R (Homo sapiens, UniProt Q5VWK5); assay: DB cells IL23R pSTAT3 cell assay (pStat3 HTRF); type: cell-based
T1 sequence (Q5VWK5 24-629): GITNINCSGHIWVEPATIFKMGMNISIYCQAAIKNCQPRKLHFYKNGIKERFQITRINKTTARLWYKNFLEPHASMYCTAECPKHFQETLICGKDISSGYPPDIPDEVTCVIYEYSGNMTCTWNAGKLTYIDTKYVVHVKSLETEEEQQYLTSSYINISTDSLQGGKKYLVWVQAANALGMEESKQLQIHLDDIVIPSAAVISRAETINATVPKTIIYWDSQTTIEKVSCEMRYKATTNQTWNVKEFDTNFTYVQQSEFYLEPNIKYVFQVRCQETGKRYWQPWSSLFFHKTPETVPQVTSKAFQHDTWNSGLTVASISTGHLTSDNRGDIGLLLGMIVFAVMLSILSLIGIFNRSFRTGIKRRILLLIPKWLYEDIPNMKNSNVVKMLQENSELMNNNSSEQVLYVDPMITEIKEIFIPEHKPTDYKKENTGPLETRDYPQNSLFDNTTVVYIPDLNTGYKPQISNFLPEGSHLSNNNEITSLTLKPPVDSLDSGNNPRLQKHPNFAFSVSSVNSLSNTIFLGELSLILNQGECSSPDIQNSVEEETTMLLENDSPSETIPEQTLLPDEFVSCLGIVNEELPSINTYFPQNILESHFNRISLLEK
Procedure, shortened: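 HTRF readout of lysate pSTAT3 (Tyr705) after two-plate processing. Peptide dilution series co-incubated with IL-23 (0.5 nM final) on 5×10E5 IL-23R-expressing DB cells per well, 30 min, 37 °C.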

[3] = in vitro; conditions: human, 20% fecal homogenate (supernatant), anaerobic, pH 6.8
[4] = Stability in simulated gastric fluid (SGF); type: in vitro ADME; conditions: pig (pepsin), simulated gastric fluid (SGF) with porcine pepsin, pH=2, 37° C., 20 μM peptide, read-out: SGF t½ (converted)
[5] = in vitro; conditions: both, SD, rat, plasma (EDTA)
[6] = in vitro; type: in vitro ADME; conditions: simulated intestinal fluid, pancreatin, pH 6.8, 37° C.; § matrix is 100 fold dilution of standard SIF concentration
[7] = in vitro; conditions: cynomolgus monkey, 20% fecal homogenate (supernatant), anaerobic, pH 6.8
[8] = system: NK cells; assay: NK cell based assay (IL-23/IL-18-induced IFNγ, Quantikine ELISA); conditions: human primary NK cells, IL-23 at EC50 to EC75 + IL-18 10 ng/mL, IFNγ after 20 to 24 hours
Procedure, shortened: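 Human NK cells were negatively selected from healthy-donor peripheral blood and expanded for 7 days in FBS-supplemented RPMI 1640 with IL-2 (25 ng/mL). IFNγ in the supernatant was quantified by ELISA after 20 to 24 hours.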

[9] = target: T2, IL-23R (human, UniProt Q5VWK5 24-629); assay: cell-based or functional assay
T2 sequence (looked up): T1 sequence (Q5VWK5 24-629)

Molecule: CC(=O)NCCCC[C@H](NC(=O)[C@](C)(CCCCN)NC(=O)[C@H](Cc1ccc2ccccc2c1)NC(=O)[C@H](Cc1ccc(OCCN)cc1)NC(=O)[C@H]1NC(=O)[C@H](CCC(N)=O)NC(=O)[C@H](Cc2c[nH]c3c(C)cccc23)NC(=O)[C@H]([C@@H](C)O)NC(=O)[C@H](CC(N)=O)NC(=O)[C@@H](NC(C)=O)C(C)(C)SSC1(C)C)C(=O)N[C@@H](CC(N)=O)C(=O)NCCC(N)=O [compound 267]
t½: Monkey Feces anaerobic [1]: 4 h | IC50 ([2]; Table E3, DB cells, IL-23 0.5 nM, 30 minutes at 37° C., read-out: pStat3 HTRF (IC50)): < 1 nM

Molecule: CC(=O)NCCCC[C@H](NC(=O)C1(NC(=O)[C@H](Cc2ccc3ccccc3c2)NC(=O)[C@H](Cc2ccc(OCCN)cc2)NC(=O)[C@H]2NC(=O)[C@H](CCC(N)=O)NC(=O)[C@H](Cc3c[nH]c4c(C)cccc34)NC(=O)[C@H]([C@@H](C)O)NC(=O)[C@H](CC(N)=O)NC(=O)[C@@H](NC(C)=O)C(C)(C)SSC2(C)C)CCNCC1)C(=O)N[C@@H](CC(N)=O)C(=O)NCCC(N)=O [compound 275]
t½: Monkey Feces anaerobic [1]: 8 h

Molecule: CC(=O)NCCCC[C@H](NC(=O)[C@](C)(CC(C)C)NC(=O)[C@H](Cc1ccc2ccccc2c1)NC(=O)[C@H](Cc1ccc(OCCN)cc1)NC(=O)[C@H]1NC(=O)[C@H](CCC(N)=O)NC(=O)[C@H](Cc2c[nH]c3c(C)cccc23)NC(=O)[C@H]([C@@H](C)O)NC(=O)[C@H](CC(N)=O)NC(=O)[C@@H](NC(C)=O)C(C)(C)SSC1(C)C)C(=O)N[C@@H](CC(N)=O)C(=O)N[C@@H](CC(N)=O)C(N)=O [compound 6]
half-life at 20 μM [3]: 17 h | half-life at 20 μM [4]: 12 h | IC50 [2]: < 1 nM | half-life at 20 μM [5]: < 1 h | SIF t½ [6]: 24 h | half-life at 20 μM [7]: 4 h | IC50 [8]: < 10 nM

B1: SEQ ID NO: 10 (peptide)
peptide: XNTXQXXXXKNN
modifications: Ac-[Pen]-NT-[W(5-OH)]-Gln-[Pen]-[Phe[4-(2-aminoethoxy)]-[2-Nal]-[α-MeLeu]-[Lys(Ac)]-NN-NH2; Pen-Pen disulfide
pStat3 HTRF (nM) IC50 [9]: > 100 nM

The remaining lines, values ahead:

pStat3 HTRF (nM) IC50 [9]: > 100 nM
B2: SEQ ID NO: 21 (peptide)
peptide: Ac-[Pen]NTWQ[Pen][AEF][Trp(5-OH)][αMeL]K(Ac)NN-NH2
modifications: disulfide 1-6
SMILES: CC(=O)NCCCC[C@H](NC(=O)[C@](C)(CC(C)C)NC(=O)[C@H](Cc1c[nH]c2ccc(O)cc12)NC(=O)[C@H](Cc1ccc(OCCN)cc1)NC(=O)[C@H]1NC(=O)[C@H](CCC(N)=O)NC(=O)[C@H](Cc2c[nH]c3ccccc23)NC(=O)[C@H]([C@@H](C)O)NC(=O)[C@H](CC(N)=O)NC(=O)[C@@H](NC(C)=O)C(C)(C)SSC1(C)C)C(=O)N[C@@H](CC(N)=O)C(=O)N[C@@H](CC(N)=O)C(N)=O

pStat3 HTRF (nM) IC50 [9]: > 100 nM
B3: SEQ ID NO: 9 (peptide)
peptide: XNTXQXXXXKNN
modifications: Ac-[Pen]-NT-[W(5-OMe)]-Gln-[Pen]-[Phe[4-(2-aminoethoxy)]-[2-Nal]-[α-MeLeu]-[Lys(Ac)]-NN-NH2; Pen-Pen disulfide

pStat3 HTRF (nM) IC50 [9]: > 100 nM
B4: SEQ ID NO: 15 (peptide)
peptide: Ac-[Pen]NTWQ[Pen][AEF][Trp(4-OMe)][αMeL]K(Ac)NN-NH2
modifications: disulfide 1-6
SMILES: COc1cccc2[nH]cc(C[C@H](NC(=O)[C@H](Cc3ccc(OCCN)cc3)NC(=O)[C@H]3NC(=O)[C@H](CCC(N)=O)NC(=O)[C@H](Cc4c[nH]c5ccccc45)NC(=O)[C@H]([C@@H](C)O)NC(=O)[C@H](CC(N)=O)NC(=O)[C@@H](NC(C)=O)C(C)(C)SSC3(C)C)C(=O)N[C@@](C)(CC(C)C)C(=O)N[C@@H](CCCCNC(C)=O)C(=O)N[C@@H](CC(N)=O)C(=O)N[C@@H](CC(N)=O)C(N)=O)c12

pStat3 HTRF (nM) IC50 [9]: > 100 nM
B5: SEQ ID NO: 11 (peptide)
peptide: XNTXQXXXXKNN
modifications: Ac-[Pen]-NT-[W(5-Br)]-Gln-[Pen]-[Phe[4-(2-aminoethoxy)]-[2-Nal]-[α-MeLeu]-[Lys(Ac)]-NN-NH2; Pen-Pen disulfide

pStat3 HTRF (nM) IC50 [9]: > 100 nM
B6: SEQ ID NO: 12 (peptide)
peptide: Ac-[Pen]NTWQ[Pen][AEF][Trp(5-Cl)][αMeL]K(Ac)NN-NH2
modifications: disulfide 1-6
SMILES: CC(=O)NCCCC[C@H](NC(=O)[C@](C)(CC(C)C)NC(=O)[C@H](Cc1c[nH]c2ccc(Cl)cc12)NC(=O)[C@H](Cc1ccc(OCCN)cc1)NC(=O)[C@H]1NC(=O)[C@H](CCC(N)=O)NC(=O)[C@H](Cc2c[nH]c3ccccc23)NC(=O)[C@H]([C@@H](C)O)NC(=O)[C@H](CC(N)=O)NC(=O)[C@@H](NC(C)=O)C(C)(C)SSC1(C)C)C(=O)N[C@@H](CC(N)=O)C(=O)N[C@@H](CC(N)=O)C(N)=O
